Data: patent US20200368239A1, “TREATMENT OF AMYOTROPHIC LATERAL SCLEROSIS USING TRAMETINIB” (priority 2019, published 2020)

Key:
[1] = tested on: mRNA expression in whole brain; test: Bulk RNA-Seq of whole brains of wild type mice after oral administration; assay type: in vivo; details: FC ≥1.3, FDR <0.05
Procedure: To evaluate the transcriptional profiles in the brain, bulk RNA-Seq was performed using whole brains of wild type mice following oral administration of trametinib. Gene ontology terms were enriched at each weekly time point, indicating the relevance of cellular function such as synaptic potential, nervous system development, immune response, and incorrect protein folding in a temporal pattern (FIG. 3A). Decrease in MEK-ERK signaling with trametinib administration during week 1 and week 2 of administration can be indirectly confirmed through the decrease in expression of FGF receptor signaling and GPCR signaling related genes.
In the second week, we observed neuroblast proliferation-related and axon growth-related gene expression, followed by expression of genes for immune reaction and incorrect protein modification reaction in the third and fourth week, respectively. It is important to note that increase in the gene-sets associated with neurogenesis and the induction of lysosomal activity both occurred within the four-week period, as illustrated by the gene expression heatmap (FIGS. 4A-4B). […] Their FCs were between −2.26 and 3.71.
RNA was isolated from the mice whole brain and cDNA libraries for RNA sequencing were prepared using the TruSeq Stranded mRNA Prep Kit (Illumina, San Diego, Calif.) according to the manufacturer's guidelines (l). The libraries were sequenced on the Illumina Nextseq500 platform and the reads were mapped to the reference Mouse mm10 genome using Tophat v2.0.13. The total number of reads mapped to the transcriptomes were 24,532 genes and the genes with 0 count in at least one sample were removed before differential expression analysis. There was a total of 18,727 genes after the removal of genes with 0 count. To define differentially expressed genes (DEG), we set up a stringent statistic cutoff of fold change (FC) of ≥1.3 and a false discovery rate (FDR)<0.05. A total of 500 DEGs was identified between the vehicle-treated group and trametinib-treated group in the first week, 498 DEGs in the second week, 446 genes in the third week and 538 genes in the fourth week. Gene ontology was performed with Gene Ontology program of the gene ontology consortium. Heatmap analysis was performed by R studio using the DEG list related with synapse, neurogenesis and lysosome.

SOD1-G93A ALS model mice = test: Survival of SOD1-G93A ALS model mice; assay type: in vivo; details: 0.1 or 0.2 mg/kg/day oral
Procedure: Therapeutic efficacy of trametinib was examined in the SOD1-G93A transgenic mouse model, the most widely used animal model for ALS research. The SOD1-G93A ALS model mice, TgN [B6SJL-Tg (SOD1-G93A) 1Gur], were purchased from Jackson Laboratory (ME, USA) and bred at 21±2° C., 35-65% RH.
In addition, immunohistochemical analysis was performed with the spinal cords of the mice to evaluate the efficacy of trametinib on the tissue, cellular, and molecular level.
After the onset of symptoms (around 16 weeks after birth), trametinib was orally administered to two groups of ALS model mice every day at the doses of 0.1 mg/kg or 0.2 mg/kg (mpk). As controls, wild type (WT) mice and ALS model mice were treated with vehicle.
Mice with motor performance score at or lower than 3 were euthanized as they were not able to feed themselves. Survival days for each group of mice were counted.

[2] = tested on: LAMP1 / LC3 in spinal cord of SOD1-G93A ALS model mice; test: LC3 and LAMP1 immunofluorescence in spinal cord tissues (autophagosome-lysosome fusion); assay type: in vivo; details: vs vehicle-treated ALS model mice
Procedure: (§1) Mice were perfused with ice-cold phosphate buffered saline (PBS) and followed by 4% paraformaldehyde (PFA). Spinal cords were dissected and analyzed by immunohistochemistry. For cryosections, spinal cords were prepared into sections of 10 μm slices. For immunostaining, the sections were incubated with anti-Map2 (Millipore, Burlington, Mass.), anti-Tuj 1 (Cell signaling, Danvers, Mass.), anti-SMI-32 (Biolegend, San Diego, Calif.), anti-LAMP1 (Abcam, Cambridge, UK), or anti-LC3 (Cell signaling) antibodies. This step was followed by incubation with Alexa Fluor 488-conjugated anti-mouse IgG (Thermo, Waltham, Mass.), Alexa Fluor 488-conjugated anti-rat IgG (Thermo), Alexa Fluor 555-conjugated anti-rabbit IgG secondary antibodies (Thermo). The sections were counterstained with DAPI. The immunofluorescent images were captured using a LSM700 Laser-Scanning confocal microscope (Carl Zeiss, Heildenheim, Germany). For Nissl staining, the sections were incubated with Nissl staining solution (0.1% w/v Cresyl Violet (Sigma, C-5042, USA) and 0.1% v/v glacial acetic acid). The length of the Map2 and Tuj 1 positive dendrites and axons were measured using Icy program. The LC3-LAMP1 co-localization was observed under a confocal microscopy using a LSM700 microscope (Carl Zeiss).

in vivo = details: mouse, po, 0.8 mg/kg
Procedure: Trametinib (Medchemexpress, Monmouth Junction, N.J.) was micronized and suspended in the vehicle containing 5% mannitol, 1.5% hydroxypropyl methylcellulose and 0.2% sodium lauryl sulfate. For pharmacokinetic analysis, 0.05, 0.2 and 0.8 mg/kg of trametinib were orally administered in to 7-week-old normal mice (n=5 per group) as a single administration. Mice were sacrificed at each identical time points.

patients with ALS = test: Phase 1/2a clinical trial in patients with ALS; assay type: in vivo, human
Text: Patients are selected based on the following criteria for a sequential dose-escalation, randomized, active-controlled, phase ½a clinical trial to evaluate the safety, tolerability and efficacy of trametinib in patients with ALS.
Patients diagnosed as definite, probable or probable-laboratory-supported ALS according to El Escorial Criteria. Patients of less than 2 years after the onset of ALS. Patients who meet the criteria of K-ALSFRS-R score (total score of at least 30 and score of at least 2 for each item) and forced vital capacity (% FVC≥70%, or 60%≤% FVC<70% with K-ALSFRS-R score ≥3 for items 10 to 12).
Patients with primary lateral sclerosis, progressive muscular atrophy or lower motor neuron disease. […] Patients who have permanently ceased the administration of riluzole due to lack of tolerability and/or efficacy. […]
As primary outcome measures, safety and tolerability of trametinib is tested based on observation of adverse events. As secondary outcome measures, K-ALSFRS-R (Korean version of Amyotrophic Lateral Sclerosis Functional Rating Scale-Revised) scores are measured in the patients by independent outcome assessors. Additionally, change in forced vital capacity (FVC) from baseline, trough concentrations of trametinib in cerebrospinal fluid (CSF) and trough concentrations of trametinib in plasma are further measured.

[3] = tested on: spinal cord neurons of SOD1-G93A ALS model mice; test: Histological and immunohistochemical analysis of spinal cord of SOD1-G93A ALS model mice; assay type: in vivo; details: vs vehicle-treated ALS mice
Procedure: After the behavioral tests above were completed, the spinal cords of the euthanized mice were removed, fixed, and processed. The spinal cord tissue was sliced to a thickness of 10 μm with the CM1860 cryomicrotome (Leica Biosystems, Germany). Immunohistochemical analysis was performed using various staining methods to examine the spinal cord tissue, motor neurons, and protein expression in the motor neurons.
Through Nissl staining, the condition and distribution of neurons can be examined. Nissl staining solution contained 0.1% w/v Cresyl Violet (Sigma, C-5042, USA) and 0.1% v/v glacial acetic acid.
In order to examine the condition of the motor neurons, the spinal cord tissues were subjected to NeuN immunofluorescent staining to observe all types of neurons (red in FIG. 11) and SMI-32 staining (SMI-32 antibody binds specifically to motor neurons) to observe motor neurons (green in FIG. 11).
A longitudinal section of the spinal cord tissue was stained with tau antibody to examine the condition of the axonal nerve tract.
A cross-section of the spinal cord was stained with Tuj 1, an axonal marker, to examine the condition of axons in the tested mice.
MAP2 staining was performed to observe the condition of dendrites projecting out of the neurons.
as §1

MEK1/2 = test: Western blot of pERKs and ERKs in mice whole brain lysates after oral administration; assay type: in vivo; details: wild type mice
Procedure: FIG. 2 provides a representative image of western blot analysis of pERKs and ERKs in mice whole brain lysates. ERKs were included as a loading control.
Cells and tissues were washed twice with ice-cold phosphate-buffered saline (PBS) and extracted by homogenizing with Ripa buffer (10 mM HEPES, 1.5 mM MgCl2, 10 mM KCl, 0.01 M DTT, protease inhibitors, pH 7.9). Lysates were centrifuged at 13,000 rpm for 20 min at 4° C. and the protein content in the supernatant was determined using Bradford assay (Bio-rad, Hercules, Calif.). Protein from each sample was subjected to 8%-15% SDS-PAGE, and the resolved proteins were transferred to nitrocellulose or polyvinylidene fluoride membrane. The membranes were blocked with 5% nonfat milk powder in Tris-buffered saline/Tween 20 (TBST) for 1 h at room temperature, then incubated with anti-phospho-ERK (Cell signaling), anti-ERK (Cell signaling), anti-LAMP1 (Abcam), anti-LC3 (Cell signaling), anti-cathepsin B (Cell signaling), anti-p62 (Cell signaling), anti-p62 (5114, Cell signaling), anti-phospho-mTOR (5536, Cell signaling), anti-mTOR (2983, Cell signaling), anti-phospho-ULK1 (14202, Cell signaling), anti-ULK1 (8054, Cell signaling), anti-TFEB (852501, Biolegend), and anti-GAPDH (Cell signaling) overnight at 4° C. […] The detected signals were quantified using a LAS-4000 system (Fuji Film, Tokyo, Japan).

SMILES: CC(=O)Nc1cccc(-n2c(=O)n(C3CC3)c(=O)c3c(Nc4ccc(I)cc4F)n(C)c(=O)c(C)c32)c1 [Trametinib, acetamide, N-[3-[3-cyclopropyl-5-[(2-fluoro-4-iodophenyl)amino]-3,4,6,7-tetrahydro-6,8-dimethyl-2,4,7-trioxopyrido[4,3-d]pyrimidin-1(2H)-yl]phenyl]]
- number of differentially expressed genes (DEGs) vs vehicle-treated group ([1]; first week): 500
- number of differentially expressed genes (DEGs) vs vehicle-treated group ([1]; fourth week): 538
- number of differentially expressed genes (DEGs) vs vehicle-treated group ([1]; second week): 498
- number of differentially expressed genes (DEGs) vs vehicle-treated group ([1]; third week): 446
- survival compared to the vehicle-treated groups (SOD1-G93A ALS model mice): prolonged
- LAMP1 signal (lysosome marker) [2]: LAMP1 signal was restored
- fusion of lysosome and autophagosome (LC3-LAMP1 co-localization) [2]: restored as well
- Kp (in vivo): 0.477
- symptoms associated with ALS in treated patients (patients with ALS; 0.5, 1 or 2 mg trametinib): reduction of a behavioral, physiological and/or pathological symptom associated with ALS
- level of one or more markers after treatment (patients with ALS; some patients): change in the level of one or markers
- axon condition (Tuj 1 staining, cross-section) [3]: relatively well protected long axons
- axonal tract condition (tau staining, longitudinal section) [3]: reduced number of abnormal axonal spheroids
- dendrite condition (MAP2 staining) [3]: quite well protected
- motor neuron shape (SMI-32 and NeuN staining) [3]: elongated neurite shape was relatively well preserved
- number of neurons in spinal cord (Nissl staining) [3]: retained more neurons than the vehicle-treated group
- pERK expression in the brain (MEK1/2): significant decrease in pERK expression
